Results: patent US20170334899A1, “AMINO-SUBSTITUTED ISOTHIAZOLES” (Bayer Pharma Aktiengesellschaft, priority 2014, published 2017)
pIC50: −log10 of the molar value.

Key:
[1] = tested on: human cervical tumor cell line HeLa (ATCC CCL-2); assay: SAC-Formation - Nocodazole-Induced Assay; type: cell-based; conditions: Homo sapiens, HeLa, 24 h, HeLa cells, nocodazole 0.1 μg/ml together with test compound, decrease of mitotic cells (phospho-histone H3 Ser10)
How it was run: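 HeLa cells, plated overnight, were treated 24 h at 37 °C with nocodazole (0.1 μg/ml final) plus test compound (0.005–20 μM, 0.5% DMSO) added at the same time. After fixation, anti-phospho-histone H3 Ser10 and Hoechst staining gave the mitotic cell fraction by imaging. Values came from four-parameter Hill fits.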

[2] = tested on: human cervical tumor cell line HeLa (ATCC CCL-2); assay: SAC-Formation - Paclitaxel-Induced Assay; type: cell-based; conditions: Homo sapiens, HeLa, 24 h, HeLa cells, paclitaxel 0.05 μM, test range 0.005 μM-20 μM, read-out: IC50 [mol/l] SAC-Formation - Paclitaxel-Induced Assay
How it was run: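 HeLa cells incubated overnight at 37° C, then given paclitaxel (0.05 μM final) plus test compound (0.005–20 μM, 0.5% DMSO) together for 24 h at 37° C. Fixed cells stained for phospho-histone H3 Ser10 (mitotic cells) and Hoechst 33342 (cell count); imaging-derived mitotic index fitted by four-parameter Hill equation.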

SMILES	pIC50 [1]	pIC50 [2]
Cc1nsc(Nc2cnc(C(F)(F)F)cn2)c1C(=O)Nc1ccc(N(C)C)c(OCCCN(C)CC(F)(F)F)c1 [Example 299, N-[4-(dimethylamino)-3-{3-[methyl(2,2,2-trifluoroethyl)amino]propoxy}phenyl]-3-methyl-5-{[5-(trifluoromethyl)pyrazin-2-yl]amino}-1,2-thiazole-4-carboxamide]	6.68	6.72
Cc1nsc(Nc2cnc(C(F)(F)F)cn2)c1C(=O)Nc1ccc(N(C)C)c(OCCCN(C)CCC(F)(F)F)c1 [Example 300, N-[4-(dimethylamino)-3-{3-[methyl(3,3,3-trifluoropropyl)amino]propoxy}phenyl]-3-methyl-5-{[5-(trifluoromethyl)pyrazin-2-yl]amino}-1,2-thiazole-4-carboxamide]	6.36	5.70
Cc1nsc(Nc2cnc(C(F)(F)F)cn2)c1C(=O)Nc1ccc(F)c(OCCCN(C)CC(F)F)c1 [Example 301, N-(3-{3-[(2,2-difluoroethyl)(methyl)amino]propoxy}-4-fluorophenyl)-3-methyl-5-{[5-(trifluoromethyl)pyrazin-2-yl]amino}-1,2-thiazole-4-carboxamide]	6.96	6.09
Cc1nsc(Nc2cnc(C(F)(F)F)cn2)c1C(=O)Nc1ccc(F)c(OCCCN(C)CC(F)(F)F)c1 [Example 302, N-(4-fluoro-3-{3-[methyl(2,2,2-trifluoroethyl)amino]propoxy}phenyl)-3-methyl-5-{[5-(trifluoromethyl)pyrazin-2-yl]amino}-1,2-thiazole-4-carboxamide]	7.15	6.37
Cc1nsc(Nc2cnc(C(F)(F)F)cn2)c1C(=O)Nc1ccc(F)c(OCCCN(C)CCC(F)(F)F)c1 [Example 303, N-(4-fluoro-3-{3-[methyl(3,3,3-trifluoropropyl)amino]propoxy}phenyl)-3-methyl-5-{[5-(trifluoromethyl)pyrazin-2-yl]amino}-1,2-thiazole-4-carboxamide]	7.29	7.49
Cc1nsc(Nc2cncc(C(F)(F)F)n2)c1C(=O)Nc1ccc(OC2CCN(CCC(F)(F)F)CC2)nc1 [Example 304, 3-methyl-5-{[6-(trifluoromethyl)pyrazin-2-yl]amino}-N-(6-{[1-(3,3,3-trifluoropropyl)piperidin-4-yl]oxy}pyridin-3-yl)-1,2-thiazole-4-carboxamide]	6.89	7.05
Cc1nsc(Nc2cnc(C(F)(F)F)cn2)c1C(=O)Nc1ccc(OCCNCC(F)F)nc1 [Example 305, N-(6-{2-[(2,2-difluoroethyl)amino]ethoxy}pyridin-3-yl)-3-methyl-5-{[5-(trifluoromethyl)pyrazin-2-yl]amino}-1,2-thiazole-4-carboxamide]	6.29	6.66
Cc1nsc(Nc2cnc(C(F)(F)F)cn2)c1C(=O)Nc1ccc(F)c(OCCCNCC(F)(F)F)c1 [Example 306, N-(4-fluoro-3-{3-[(2,2,2-trifluoroethyl)amino]propoxy}phenyl)-3-methyl-5-{[5-(trifluoromethyl)pyrazin-2-yl]amino}-1,2-thiazole-4-carboxamide]	7.62	7.02
Cc1nsc(Nc2cnc(C(F)(F)F)cn2)c1C(=O)Nc1ccc(F)c(OCCCNCCC(F)(F)F)c1 [Example 307, N-(4-fluoro-3-{3-[(3,3,3-trifluoropropyl)amino]propoxy}phenyl)-3-methyl-5-{[5-(trifluoromethyl)pyrazin-2-yl]amino}-1,2-thiazole-4-carboxamide]	7.00	6.42
Cc1nsc(Nc2cnc(C(F)(F)F)cn2)c1C(=O)Nc1ccc(F)c(OCC2CCN(CC(F)F)CC2)c1 [Example 308, N-(3-{[1-(2,2-difluoroethyl)piperidin-4-yl]methoxy}-4-fluorophenyl)-3-methyl-5-{[5-(trifluoromethyl)pyrazin-2-yl]amino}-1,2-thiazole-4-carboxamide]	7.51	7.29
Cc1nsc(Nc2cnc(C(F)(F)F)cn2)c1C(=O)Nc1ccc(F)c(OCC2CCN(CCF)CC2)c1 [Example 309, N-(4-fluoro-3-{[1-(2-fluoroethyl)piperidin-4-yl]methoxy}phenyl)-3-methyl-5-{[5-(trifluoromethyl)pyrazin-2-yl]amino}-1,2-thiazole-4-carboxamide]	6.89	6.21
Cc1nsc(Nc2cnc(C(F)(F)F)cn2)c1C(=O)Nc1ccc(F)c(OCC2CCN(CC(F)(F)F)CC2)c1 [Example 310, N-(4-fluoro-3-{[1-(2,2,2-trifluoroethyl)piperidin-4-yl]methoxy}phenyl)-3-methyl-5-{[5-(trifluoromethyl)pyrazin-2-yl]amino}-1,2-thiazole-4-carboxamide]	7.23	7.31
Cc1nsc(Nc2cnc(C(F)(F)F)cn2)c1C(=O)Nc1ccc(F)c(OCC2CCN(CCC(F)(F)F)CC2)c1 [Example 311, N-(4-fluoro-3-{[1-(3,3,3-trifluoropropyl)piperidin-4-yl]methoxy}phenyl)-3-methyl-5-{[5-(trifluoromethyl)pyrazin-2-yl]amino}-1,2-thiazole-4-carboxamide]	6.89	6.32
Cc1nsc(Nc2cnc(C(F)(F)F)cn2)c1C(=O)Nc1ccc(OC2CCN(C(CF)CF)C2)nc1 (stereo not drawn) [Example 313, N-(6-{[1-(1,3-difluoropropan-2-yl)pyrrolidin-3-yl]oxy}pyridin-3-yl)-3-methyl-5-{[5-(trifluoromethyl)pyrazin-2-yl]amino}-1,2-thiazole-4-carboxamide]	6.85	7.26
Cc1nsc(Nc2cnc(C(F)(F)F)cn2)c1C(=O)Nc1ccc(F)c(OC2CCN(CC(F)F)C2)c1 (stereo not drawn) [Example 314, N-(3-{[1-(2,2-difluoroethyl)pyrrolidin-3-yl]oxy}-4-fluorophenyl)-3-methyl-5-{[5-(trifluoromethyl)pyrazin-2-yl]amino}-1,2-thiazole-4-carboxamide]	7.28	7.11
Cc1nsc(Nc2cnc(C(F)(F)F)cn2)c1C(=O)Nc1ccc(F)c(OC2CCN(CC(F)(F)F)C2)c1 (stereo not drawn) [Example 315, N-(4-fluoro-3-{[1-(2,2,2-trifluoroethyl)pyrrolidin-3-yl]oxy}phenyl)-3-methyl-5-{[5-(trifluoromethyl)pyrazin-2-yl]amino}-1,2-thiazole-4-carboxamide]	8.37	7.22
Cc1nsc(Nc2cnc(C(F)(F)F)cn2)c1C(=O)Nc1ccc(F)c(OCC2CCN(CC(F)F)C2)c1 (stereo not drawn) [Example 316, N-(3-{[1-(2,2-difluoroethyl)pyrrolidin-3-yl]methoxy}-4-fluorophenyl)-3-methyl-5-{[5-(trifluoromethyl)pyrazin-2-yl]amino}-1,2-thiazole-4-carboxamide]	7.55	7.35
Cc1nsc(Nc2cnc(C(F)(F)F)cn2)c1C(=O)Nc1ccc(F)c(OCC2CCN(CCF)C2)c1 (stereo not drawn) [Example 317, N-(4-fluoro-3-{[1-(2-fluoroethyl)pyrrolidin-3-yl]methoxy}phenyl)-3-methyl-5-{[5-(trifluoromethyl)pyrazin-2-yl]amino}-1,2-thiazole-4-carboxamide]	7.06	6.21
Cc1nsc(Nc2cnc(C(F)(F)F)cn2)c1C(=O)Nc1ccc(F)c(OCC2CCN(C(CF)CF)C2)c1 (stereo not drawn) [Example 320, N-(3-{[1-(1,3-difluoropropan-2-yl)pyrrolidin-3-yl]methoxy}-4-fluorophenyl)-3-methyl-5-{[5-(trifluoromethyl)pyrazin-2-yl]amino}-1,2-thiazole-4-carboxamide]	7.26	6.54
Cc1nsc(Nc2cnc(C(F)(F)F)cn2)c1C(=O)Nc1ccc(OCCNCCF)nc1 [Example 321, N-(6-{2-[(2-fluoroethyl)amino]ethoxy}pyridin-3-yl)-3-methyl-5-{[5-(trifluoromethyl)pyrazin-2-yl]amino}-1,2-thiazole-4-carboxamide]	6.85	5.96
Cc1nsc(Nc2cnc(C(F)(F)F)cn2)c1C(=O)Nc1ccc(OCCNCC(F)(F)F)nc1 [Example 322, 3-methyl-N-(6-{2-[(2,2,2-trifluoroethyl)amino]ethoxy}pyridin-3-yl)-5-{[5-(trifluoromethyl)pyrazin-2-yl]amino}-1,2-thiazole-4-carboxamide]	7.16	6.82
